Measurements taken from patent US9115072B2, “Compounds and method for reducing uric acid” (WELLSTAT THERAPEUTICS CORPORATION, priority 2008, dated 2015).

Key:
[1] = biological target: T1, human URAT1 (Homo sapiens, UniProt Q96S37); test: URAT1 inhibition assay, [8-14C] urate uptake in hURAT1-HEK cells; type: cell-based; details: 50 μM [8-14C] urate
T1 construct: The full-length hURAT1 cDNA was obtained from the vector pCMV6-XL5 and subcloned into the expression vector pCMV6-Neo
T1 sequence (Q96S37 1-553): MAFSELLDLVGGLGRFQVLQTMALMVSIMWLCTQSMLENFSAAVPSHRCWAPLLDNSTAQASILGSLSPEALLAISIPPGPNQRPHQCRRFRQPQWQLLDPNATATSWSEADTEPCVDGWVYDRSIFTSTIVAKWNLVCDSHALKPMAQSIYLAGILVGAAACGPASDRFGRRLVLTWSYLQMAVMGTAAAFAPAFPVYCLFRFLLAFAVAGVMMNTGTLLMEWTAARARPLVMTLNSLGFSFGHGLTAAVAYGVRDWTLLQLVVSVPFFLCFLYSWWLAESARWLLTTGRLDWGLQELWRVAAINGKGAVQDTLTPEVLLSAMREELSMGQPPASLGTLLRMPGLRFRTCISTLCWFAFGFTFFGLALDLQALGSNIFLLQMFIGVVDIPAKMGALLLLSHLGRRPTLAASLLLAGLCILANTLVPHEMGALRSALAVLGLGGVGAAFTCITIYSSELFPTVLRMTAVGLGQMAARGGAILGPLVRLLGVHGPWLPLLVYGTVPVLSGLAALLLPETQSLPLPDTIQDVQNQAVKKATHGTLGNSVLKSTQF
Method: A suitable assay involves transfection of cells (e.g. human embryonic kidney cells; “HEK”) with a vector encoding human URAT1, followed by determination of the ability of transfected cells to take up radiolabeled uric acid. The activity of compounds as URAT1 inhibitors is evaluated by their ability to block uric acid uptake by transfected cells.
Urate (50-60 mCi/mmol; American Radio Chemicals, Cat. No. ARC0513).
Plasmid vector pCMV6-XL5 containing hURAT1 cDNA (Cat. No. SC125624) and the expression vector pCMV6-Neo (Cat. No. pCMVNEO) were obtained from OriGene Technologies, Inc. The full-length hURAT1 cDNA was obtained from the vector pCMV6-XL5 and subcloned into the expression vector pCMV6-Neo to create the hURAT1 expression plasmid pCMV6-hURAT1. The sequences were verified by automatic DNA sequencing.
For transfection experiments, cells were plated on 60 mm dishes in 1 ml media per dish. […] Stable transfectants expressing hURAT1 (herein after referred as hURAT1-HEK cells) or cells having only the expression vector pCMV6-Neo (herein after referred as mock-HEK cells) were verified using reverse transcription polymerase chain reaction (RT-PCR) methods.
Before the uptake assay started, the culture medium was removed and the cells were incubated for 5 min in 0.6 ml of HBSS. After that HBSS was removed, the prepared reaction solutions were added into each well and incubated for 5 min at room temperature. Then the reaction solution was removed, cells were washed twice with 0.6 ml of cold HBSS and lysed with 0.2 ml of 0.1 M NaOH for 20 min. […] Test compounds were dissolved in DMSO and the same concentration of DMSO was added into the wells of mock-HEK cells and the hURAT1-HEK cells that didn't contain test compounds. For each test compound, the uptake assay was performed 2 times and carried out in triplicate. Urate uptake of the cells for each test condition was presented as the average percent inhibition in comparison to the DMSO control. The radioactivity values obtained for the wells that contained DMSO were taken as 100% uptake of the cells. The observed concentration-percent inhibition data were fitted to a sigmoidal concentration-effect model, where: IC50^Slope=[(100*Conc^Slope)/% Inhibition]−Conc^Slope
Additional drug concentrations were tested for determination of IC-50 values for some compounds (Table 6).

[2] = Rat oral single-dose pharmacokinetic study; type: in vivo; details: 100 mg/kg single oral gavage
Method: • 1. Male Sprague-Dowley rats received single oral gavage of Compound EH, 100 mg/kg, and plasma was collected at certain times. • 2. Rat plasma was stored at −80° C. until the day of analysis. • 3. Samples were thawed on 37° C. bath for 5 min and vortexed at top speed for 10 sec. • 4. Rat plasma, 0.1 mL was mixed with 0.2 mL Acetonitrile, vortexed 1 min, spun down 14000 rpm, 17000 g, at 4° C., for 25 min. • 5. Supernatants were filtered through 0.45 micron, 4 mm, PTFE membrane syringe filter (Phenomenex #AF0-3102-52), and 15 microL were injected and resolved on Luna 3 micron, 100 A pore, C8(2), 150×3 mm, reverse phase column (Phenomenex#00F-4248-YO, SN#259151-7) in 50 min linear gradient from 40% to 69% of (0.1% Formic Acid, 89.9% Acetonitrile, 10% Methanol) at 0.25 mL/min, 107 bar, 37° C. column temperature, method 406975M1, Sequence 0226-09A, Agilent 1100 LC-MS.
All samples were run in duplicate, 210 nm and 230 nm Absorbances, Negative and Positive ionization spectrograms recorded.
Step 1. Rat plasma from V2 and V3 animals (“vehicle”, pooled), 0.19 mL, was mixed with 0.01 mL 20× stock of Compound EH in Methanol to make 500 microM, 250 microM, 125 microM, . . . , concentrations of Compound EH in plasma.
For example: 190 microL plasma+10 microL of 10 mM Compound EH in methanol=0.2 mL plasma with 500 microM Compound EH.
Step 2. Samples from step 1 were vortexed for 10 sec at top speed.
Step 3. 0.4 mL of acetonitrile was added to all samples from Step 2, and all vials were vortexed at top speed for 1 min.
Step 4. All samples from step 3 were spun down 14000 rpm, 17000 g, at 4° C., for 25 min.
Step 5. Supernatants were filtered through 0.45 micron, 4 mm, PTFE membrane syringe filter (Phenomenex #AF0-3102-52), 15 microL were injected and resolved on Luna 3 micron, 100 A pore, C8(2), 150×3 mm, reverse phase column

Cc1ccc(CC(=O)O)cc1OCc1c(C)cccc1C [Compound EH, 2-(3-(2,6-Dimethylbenzyloxy)-4-methylphenyl)acetic acid]
IC50 [1]: 80 nM
inhibition at 10 µM ([1]; drug concentration typically 10 micromolar, read-out: % of Inhibition (uric acid uptake)): 95.9%
concentration at 0 h ([2]; male, Sprague-Dawley, rat, plasma, time 0 HR, read-out: Compound EH concentration in rat plasma): 0 nM
concentration at 0.25 h ([2]; male, Sprague-Dawley, rat, plasma, time 0.25 HR, read-out: Compound EH concentration in rat plasma): 349 µM
concentration at 0.5 h ([2]; male, Sprague-Dawley, rat, plasma, time 0.5 HR, read-out: Compound EH concentration in rat plasma): 723 µM
concentration at 2 h ([2]; male, Sprague-Dawley, rat, plasma, time 2 HR, read-out: Compound EH concentration in rat plasma): 79 µM
concentration at 4 h ([2]; male, Sprague-Dawley, rat, plasma, time 4 HR, read-out: Compound EH concentration in rat plasma): 126 µM
concentration at 6 h ([2]; male, Sprague-Dawley, rat, plasma, time 6 HR, read-out: Compound EH concentration in rat plasma): 112 µM
concentration at 8 h ([2]; male, Sprague-Dawley, rat, plasma, time 8 HR, read-out: Compound EH concentration in rat plasma): 48 µM
concentration at 24 h ([2]; male, Sprague-Dawley, rat, plasma, time 24 HR, read-out: Compound EH concentration in rat plasma): 0 nM
Cmax ([2]; male, Sprague-Dawley, rat plasma): 723 µM
AUC(0-24) ([2]; rat plasma): 1765 µM·h
